In assay [1] the target is T1, MC1-R (B-16 mouse melanoma cells) (Mus musculus (Mouse), UniProt Q01727). The assay is described as follows: Competitive binding using Eu-labeled NDP-α-MSH, MC1-R. The procedure:
A competitive inhibition binding assay is performed using membrane homogenates prepared from HEK-293 cells that express recombinant hMC4-R, hMC3-R, or hMC5-R, and from B-16 mouse melanoma cells (containing endogenous MC1-R). In some instances, HEK-293 cells that express recombinant hMC1-R were employed. In the examples that follow, all MC3-R, MC4-R and MC5-R values are for human recombinant receptors. MC1-R values are for B-16 mouse melanoma cells, unless the heading is “hMC1-R”, in which case the value is for human recombinant MC1-R. Assays were performed in 96 well GF/B Millipore multiscreen filtration plates (MAFB NOB10) pre-coated with 0.5% bovine serum albumin (Fraction V). Membrane homogenates were incubated with 0.2 nM (for hMC4-R) 0.4 nM (for MC3-R and MC5-R) or 0.1 nM (for mouse B16 MC1-R or hMC1-R) [I^125]-NDP-α-MSH (Perkin Elmer) and increasing concentrations of test peptides of the present invention in buffer containing 25 mM HEPES buffer (pH 7.5) with 100 mM NaCl, 2 mM CaCl2, 2 mM MgCl2, 0.3 mM 1,10-phenanthroline, and 0.2% bovine serum albumin. After incubation for 60 minutes at 37° C., the assay mixture was filtered and the membranes washed three times with ice-cold buffer. Filters were dried and counted in a gamma counter for bound radioactivity. […] Maximal specific binding (100%) was defined as the difference in radioactivity (cpm) bound to cell membranes in the absence and presence of 1 μM NDP-α-MSH. […] Ki values for test peptides of the present invention were determined using Graph-Pad Prism® curve-fitting software.
Alternatively, a competitive inhibition binding assay was performed employing Eu-NDP-α-MSH (PerkinElmer Life Sciences catalog No. AD0225) with determination by time-resolved fluorometry (TRF) of the lanthanide chelate. […] The plates were incubated on a shaker for 15 minutes and read at 340 nm excitation and 615 nm emission wavelengths. […] Ki values were determined by curve-fitting with Graph-Pad Prism® software using a one-site fixed-slope competition binding model.

In assay [2] the target is T1, MC1-R (B-16 mouse melanoma cells). The assay is described as follows: Competitive inhibition binding assay using [I125]-NDP-α-MSH, MC1-R. The procedure:
A competitive inhibition binding assay is performed using membrane homogenates prepared from HEK-293 cells that express recombinant hMC4-R, hMC3-R, or hMC5-R, and from B-16 mouse melanoma cells (containing endogenous MC1-R). In some instances, HEK-293 cells that express recombinant hMC1-R were employed. In the examples that follow, all MC3-R, MC4-R and MC5-R values are for human recombinant receptors. MC1-R values are for B-16 mouse melanoma cells, unless the heading is “hMC1-R”, in which case the value is for human recombinant MC1-R. Assays were performed in 96 well GF/B Millipore multiscreen filtration plates (MAFB NOB10) pre-coated with 0.5% bovine serum albumin (Fraction V). […] Filters were dried and counted in a gamma counter for bound radioactivity. […] Maximal specific binding (100%) was defined as the difference in radioactivity (cpm) bound to cell membranes in the absence and presence of 1 μM NDP-α-MSH. […] Ki values for test peptides of the present invention were determined using Graph-Pad Prism® curve-fitting software.

The target in the next assay is hMC4-R (Homo sapiens (Human), UniProt P32245). The assay is described as follows: Assay for agonist activity: cAMP accumulation in HEK-293 cells that express hMC4-R. The conditions noted are these: agonist = intrinsic activity 70% or higher; partial agonist 10-70%. (cAMP levels reflect the balance of adenylyl cyclase and phosphodiesterase activity.)
Chain of hMC4-R (P32245 whole entry): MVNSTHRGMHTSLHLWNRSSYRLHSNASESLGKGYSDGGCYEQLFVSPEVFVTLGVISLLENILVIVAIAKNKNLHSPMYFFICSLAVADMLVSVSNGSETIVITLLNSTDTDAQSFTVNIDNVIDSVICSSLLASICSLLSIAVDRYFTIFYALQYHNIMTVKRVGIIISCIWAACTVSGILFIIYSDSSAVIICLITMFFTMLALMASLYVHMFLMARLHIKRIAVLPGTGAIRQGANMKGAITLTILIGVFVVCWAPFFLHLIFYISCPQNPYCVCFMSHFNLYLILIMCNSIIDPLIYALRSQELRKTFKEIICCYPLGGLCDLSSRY
Another assay deals with Male Sprague-Dawley rats. Briefly: Induction of penile erection in male rats. In kind it is in vivo, rat. To be noted: rats, subcutaneous, doses of 1, 3 or 10 mg/kg. The source says: Each dose group contained six or seven animals, with video observation for sixty minutes following administration.
In a further assay the target is hMC3-R (Homo sapiens (Human), UniProt P41968). The assay is described as follows: Competitive inhibition binding assay using [I125]-NDP-α-MSH, MC3-R. On the procedure: A competitive inhibition binding assay is performed using membrane homogenates prepared from HEK-293 cells that express recombinant hMC4-R, hMC3-R, or hMC5-R, and from B-16 mouse melanoma cells (containing endogenous MC1-R). In some instances, HEK-293 cells that express recombinant hMC1-R were employed. In the examples that follow, all MC3-R, MC4-R and MC5-R values are for human recombinant receptors. […] Membrane homogenates were incubated with 0.2 nM (for hMC4-R) 0.4 nM (for MC3-R and MC5-R) or 0.1 nM (for mouse B16 MC1-R or hMC1-R) [I^125]-NDP-α-MSH (Perkin Elmer) and increasing concentrations of test peptides of the present invention in buffer containing 25 mM HEPES buffer (pH 7.5) with 100 mM NaCl, 2 mM CaCl2, 2 mM MgCl2, 0.3 mM 1,10-phenanthroline, and 0.2% bovine serum albumin. After incubation for 60 minutes at 37° C., the assay mixture was filtered and the membranes washed three times with ice-cold buffer. Filters were dried and counted in a gamma counter for bound radioactivity. […] Maximal specific binding (100%) was defined as the difference in radioactivity (cpm) bound to cell membranes in the absence and presence of 1 μM NDP-α-MSH. […] Each assay was conducted in triplicate and the actual mean values are described, with results less than 0% reported as 0%. Ki values for test peptides of the present invention were determined using Graph-Pad Prism® curve-fitting software.
Chain of hMC3-R (P41968 whole entry): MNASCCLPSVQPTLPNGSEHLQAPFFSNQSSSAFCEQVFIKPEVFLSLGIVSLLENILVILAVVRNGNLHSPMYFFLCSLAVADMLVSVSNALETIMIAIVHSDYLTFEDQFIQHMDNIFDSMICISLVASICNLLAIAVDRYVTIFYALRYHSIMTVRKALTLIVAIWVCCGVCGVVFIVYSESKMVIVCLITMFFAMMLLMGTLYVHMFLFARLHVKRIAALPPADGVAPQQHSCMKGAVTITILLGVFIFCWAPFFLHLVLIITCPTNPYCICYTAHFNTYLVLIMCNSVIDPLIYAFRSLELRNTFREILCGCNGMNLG

T1 sequence (Q01727 whole entry): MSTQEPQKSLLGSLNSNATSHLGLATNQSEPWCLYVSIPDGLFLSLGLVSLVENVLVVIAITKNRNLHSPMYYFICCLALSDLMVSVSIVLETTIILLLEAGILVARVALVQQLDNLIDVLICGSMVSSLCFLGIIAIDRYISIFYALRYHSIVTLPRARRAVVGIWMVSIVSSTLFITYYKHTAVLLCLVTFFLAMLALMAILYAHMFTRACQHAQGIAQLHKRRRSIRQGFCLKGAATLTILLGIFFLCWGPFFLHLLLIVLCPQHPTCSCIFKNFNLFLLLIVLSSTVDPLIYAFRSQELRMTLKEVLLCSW
Method for hMC4-R: By “intrinsic activity” is meant the maximal functional activity achievable by a compound in a specified melanocortin receptor expressing cell system, such as the maximal stimulation of adenylyl cyclase.
Accumulation of intracellular cAMP was examined as a measure of the ability of the peptides of the present invention to elicit a functional response in HEK-293 cells that express MC4-R. Confluent HEK-293 cells that express recombinant hMC4-R were detached from culture plates by incubation in enzyme-free cell dissociation buffer. Dispersed cells were suspended in Earle's Balanced Salt Solution containing 10 mM HEPES (pH 7.5), 1 mM MgCl2, 1 mM glutamine, 0.5% albumin and 0.3 mM 3-isobutyl-1-methyl-xanthine (IBMX), a phosphodiesterase inhibitor. […] Cells were exposed for 15 minutes at 37° C. to peptides of the present invention dissolved in DMSO (final DMSO concentration of 1%) at a concentration range of 0.05-5000 nM in a total assay volume of 200 μL. […] Data analysis was performed by nonlinear regression analysis with Graph-Pad Prism® software. The maximum efficacies of the test peptides of the present invention were compared to that achieved by the reference melanocortin agonist NDP-αMSH.

As usually defined, the Ki is the equilibrium dissociation constant of an inhibitor or competing ligand from its target. Higher therefore signals lower affinity. As to `CC(=O)N[C@@H](CCCNC(=N)N)C(=O)N[C@H]1CC(=O)NCCCC[C@@H](C(N)=O)NC(=O)[C@H](Cc2c[nH]c3ccccc23)NC(=O)[C@H](CCCNC(=N)N)NC(=O)[C@@H](Cc2ccccc2)NC(=O)[C@H](CCC(N)=O)NC1=O` [Peptide No. 32, Ac-Arg-cyclo(Asp-Gln- D-Phe-Arg-Trp-Lys)- NH2], the results for the Ki (in assay [1]; in assay [2]; on hMC3-R) were 673 nM, 133 nM and 340 nM, respectively. At hMC4-R, the “functional status at MC4-R (agonist / partial agonist)” value is recorded as “agonist”. Further, in the assay with Male Sprague-Dawley rats, the observed spontaneous erections entry is listed as “increase in observed spontaneous erections”.

The record behind these values is patent US8846601B2, “Melanocortin receptor-specific peptides” (Palatin Technologies, Inc., priority 2009, dated 2014).
